Assay results published in PubChem BioAssay AID179 (DTP/NCI, 2004).
Values joined by “and” are separate entries in the source; they are usually repeats but may differ in a detail not shown here. Equal entries are not always repeated. Active and inactive are the calls of the source.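 The calls were made as follows: active = compounds giving half or more protection of infected cells from virus-caused growth loss, again on retest; inactive = the rest.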 Where a SMILES comes first, the peptide text is derived from it.

System: CEM cells HIV-1 protection, formazan growth assay
Experiment: NCI AIDS Antiviral Assay
Settings: for IC50: measured here: growth of uninfected CEM cells
How it was run: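 CEM (human) cells, HIV-1 infected vs uninfected, 5-point dosing, formazan growth read-out. Retest threshold 50% protection.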

Structure (SMILES)	EC50 [µM]	IC50	outcome
O=C1Cc2c([nH]c3cc(Br)ccc23)-c2ccccc2N1	> 200	8.91 µM	–
CCC(C)(C)/C(CC(O)(C(F)(F)F)C(F)(F)F)=N\O	> 200	> 200 µM	–
O=C(NC(=Nc1ccccc1)SCSC(=Nc1ccccc1)NC(=O)c1ccc(Cl)cc1)c1ccc(Cl)cc1	> 100	> 100 µM	–
Cc1nn(C(=O)c2ccncc2)c2c1C(c1ccc(Cl)cc1)SC(N)=N2 (centres undefined)	> 200	30.9 µM	–
Cn1cc(NC(=O)c2cc(NC(=O)Nc3cc(C(=O)Nc4cc(C(=O)NCCC(=N)N)n(C)c4)n(C)c3)cn2C)cc1C(=O)NCCC(=N)N	15.1	77.6 µM	–
CCC1(CC)C(=O)[N-]C(=O)[N-]C1=O.[Au+].[Au+].c1ccc([PH+](c2ccccc2)c2ccccc2)cc1.c1ccc([PH+](c2ccccc2)c2ccccc2)cc1	> 6.61	> 6.61 µM	–
Cc1cc(C)nc(NC(=S)Nc2ccccc2Cl)c1	> 200	> 200 µM	–
COC(=O)C1=Cc2cc(OC)c(O)cc2[C@@H](c2ccc(O)c(OC)c2)[C@@H]1C(=O)OC	> 200	77.6 µM	–
O=S(=O)(c1ccc(Cl)cc1)S(=O)(=O)c1ccc(Cl)cc1	10.7	26.9 µM	–
COC(=O)c1ccc(NCC2=C(Br)C(=O)C=CC2=O)cc1Cl	–	–	inactive
COC1OC2COc3ccccc3OC2C2N=C(N)SC12 (centres undefined)	295	363 µM	–
O=[N+]([O-])C1C2C=CC(C2)[C@H]1c1ccco1 (some centres undefined)	–	–	inactive
CN1C2CCC1CC(OC(=O)C(CO)c1ccccc1)C2 (centres undefined)	> 200	> 200 µM	–
CCCCCCC[CH2][Sn]([Cl])([Cl])[CH2]CCCCCCC	–	–	inactive
CSc1nnc(COc2ccc(Cl)cc2)o1	> 263	> 263 µM	–
O=S(=O)([N-]c1nc2ccccc2nc1-[n+]1ccccc1)c1ccccc1	> 100	> 100 µM	–
Cc1cccc(C2=NC(c3ccccc3)C(c3ccccc3)N=C2c2cccc(C)n2)n1 (centres undefined)	> 16.2	> 16.2 µM	–
COc1cc(CNC(=S)CCCCCCCCCCC(C)C)ccc1O	–	–	inactive
Cc1ccc2c(=O)c3c(O)c4c(cc3n(C)c2c1)OC(C)(C)C=C4	> 200	> 200 µM	–
CN(C)c1nc(N(C)C)n2nc(-c3ccccc3[N+](=O)[O-])nc2n1	> 21.9	0.00708 µM	–
CC(C)OP(=O)(OC(C)C)/C(=N/Nc1ccc([N+](=O)[O-])cc1)NNC(N)=O	> 89.1	26.3 µM	–

Structure (SMILES)	EC50 [µM]	IC50	outcome
CCOC(=O)c1ccc(NC(=O)Nc2cc(C)ccn2)cc1	> 200	> 200 µM	–
COC(=O)C(=O)C(C#N)c1cccc2ccccc12 (centres undefined)	–	–	inactive
C[N+](C)(C)C=Nc1cccc2c1CCCC2	> 200	–	–
COc1ccc2c(c1)-c1nc(=S)n(CCN(C)C)c3ccc([N+](=O)[O-])c(c13)N2	> 2	0.389 µM	–
CC1(C)OP23(NC(=O)OC2(C(F)(F)F)c2ccccc2O3)OC1(C)C (centres undefined)	> 245	> 245 µM	–
CC(C)C(NC(=O)C(N)CCCCN)C(=O)NC(CCCCN)C(=O)NCC(=O)NC(C(=O)O)C(C)O (centres undefined) (H-KVKGT-OH; configuration not given here)	–	–	inactive
COC(=O)c1c(C)cc(OC(=O)c2c(C)cc(O)c(/C=N\Nc3ccccc3)c2O)c(C)c1O	> 200	9.77 µM	–
CSc1nnc2n1-c1ccccc1SCC2	> 1000	389 µM	–
CC(=O)OCC1(C)ON=C2CCCCC21 (centres undefined)	> 1170	> 1170 µM	–
CCOC(=O)c1nc(SC)sc1NC(=O)c1ccccc1Cl	> 200	9.55 µM	–
CN(C)CCCNC(=O)c1nc(NC(=O)c2nc(NC(=O)c3nc(NC(=O)/C=C/C(=O)Nc4cn(C)c(C(=O)Nc5cn(C)c(C(=O)Nc6cn(C)c(C(=O)NCCCN(C)C)n6)n5)n4)cn3C)cn2C)cn1C	> 50.1	> 50.1 µM	–
CCCc1ccc(OC2OC(CO)C(O)C(O)C2O)cc1 (centres undefined)	> 302	> 302 µM and 85.1 µM	–
N#CCc1ccc(C(C#N)/C(CCCC(=O)Nc2cccc([N+](=O)[O-])c2)=N/NC(N)=S)cc1 (centres undefined)	–	–	inactive
CC(=O)Nc1ccc(S(=O)(=O)NCCSSCCNS(=O)(=O)c2ccc(NC(C)=O)cc2)cc1	> 200	> 200 µM	–
CC(=O)c1c(-c2cccc3ccccc23)c(C#N)c(=S)n(C2OC(CO)C(O)C(O)C2O)c1-c1ccccc1 (centres undefined)	> 200	24 µM and > 200 µM	–
Cc1cc2n([O-])cccc-2[n+](=O)c1	> 200	> 200 µM	–
COc1cnn(-c2ccccc2)c(=O)c1SCc1ccc(Cl)cc1	> 52.5	30.9 µM	–
O=S1(=O)C=C2CCCCC21 (centres undefined)	> 1580	> 1580 µM	–
C=CCOc1c(C)cc(C#N)cc1C	–	–	inactive
Cc1cc(Br)ccc1Nc1nc(N)nc(N)c1N=O	> 200	51.3 µM	–
C=C1CC(Cn2ccc(=O)[nH]c2=O)(c2ccc(Cl)cc2)OC1=O (centres undefined)	> 20	0.912 µM	–

Structure (SMILES)	EC50 [µM]	IC50	outcome
COC(=O)C(C(=O)C(=O)Nc1c(C)cccc1C)c1cnc2ccccc2n1 (centres undefined)	> 50.1	> 50.1 µM	–
CC(C)=CCc1[nH]c2ccccc2c1C1=C(O)C(=O)C(c2c(CC=C(C)C)[nH]c3ccccc23)=C(O)C1=O	> 200	1.74 µM	–
CN1C(=O)N/C(=C\c2ccc(S(=O)(=O)N/N=C\C(O)C(O)C(O)CO)cc2)C1=O (centres undefined)	> 200	> 200 µM	–
O=[N+]([O-])c1cccc([N+](=O)[O-])c1Cl	> 200	16.6 µM	–
Cc1c(C)c2ccc3c(c2oc1=O)[C@@H](OC(=O)C12CCC(C)(C(=O)O1)C2(C)C)[C@@H](OC(=O)C12CCC(C)(C(=O)O1)C2(C)C)C(C)(C)O3 (some centres undefined)	0.245	123 µM	–
CC(C)CC(NC(=O)C(CO)NC(=O)C(CCCCN)NC(=O)C(CCCCN)NC(=O)C(NC(=O)CNC(=O)C(NC(=O)C(CO)NC(=O)C(NC(=O)C(NC(=O)C(CO)NC(=O)C(CC(N)=O)NC(=O)C(N)CCC(N)=O)C(C)C)C(C)C)C(C)O)C(C)C)C(=O)NC(Cc1ccccc1)C(=O)NC(CCC(N)=O)C(=O)O (centres undefined) (H-QNSVVSTGVKKSLFQ-OH; configuration not given here)	–	–	inactive
C=CCCCCCCCCCC(C(=O)O)C(=O)O	> 977	550 µM	–
COc1cccc(C2c3cc4c(cc3OC(N3CCOCC3)C2C)OCO4)c1O (centres undefined)	> 200	3.09 µM	–
N=C(N)c1ccc(OCCCCCOc2ccc(C(=N)N)cc2)cc1	> 20.4	1.29 µM	–
O=Nc1sc(=S)n(N2CCCCC2)c1O	> 200	105 µM	–
O=C(c1ccccc1[N+](=O)[O-])C(Br)C(Br)c1ccc(Cl)c(Cl)c1 (centres undefined)	> 20	1 µM	–
O=[N+]([O-])c1ccccc1SCc1ccccc1	> 55	50.1 µM	–
O=C(O)c1ccc(-n2[se]c3ccccc3c2=O)cc1	7.24	20.4 µM	–
COc1ccccc1NC(=O)CC(=O)NNCC(=O)Nc1nnc(-c2ccccc2)o1	> 85.1	> 85.1 µM	–
C=CCc1ccccc1OP(=O)(Oc1ccc(C(C)(C)C)cc1)Oc1ccc(C(C)(C)C)cc1	–	–	inactive
CC[N+]1(C)CCC(O)(/C=C/c2ccc(Cl)cc2)C(C(=O)/C=C/c2ccc(Cl)cc2)C1 (centres undefined)	> 20	2.95 µM	–
Oc1c(Cl)cc(Cl)c2cccnc12	–	–	inactive
O=C(Cc1c(C(=O)Nc2ccccc2)sc(C(=O)Nc2ccccc2)c1CC(=O)Nc1ccccc1)Nc1ccccc1	–	–	inactive
N#C/C(=C\c1cc(Br)c(O)c(Br)c1)c1cccnc1	> 100	44.7 µM	–
CCCCCCCCCCCC1=C(O)C(=O)C(CC2=C(O)C(=O)C(CCCCCCCCCCC)=C(O)C2=O)=C(O)C1=O	> 20	> 20 µM	–
NC(Cc1ccc(O)cn1)C(=O)O (centres undefined)	> 200	> 200 µM	–

Structure (SMILES)	EC50 [µM]	IC50	outcome
CC1=NNC(=O)C1C1CC(c2c[nH]c3ccccc23)=Nn2c(-c3ccccc3)nnc21 (centres undefined)	> 100	32.4 µM	–
COC(=O)[C@@H]1CSC(=S)N1C(=O)C[C@H]1CC=CC[C@H]1CC(=O)Sc1ccccc1	–	–	inactive
Cc1c2c(n(Cc3ccccn3)c1C)NN=C(C#N)S2(=O)=O	> 200	> 200 µM	–
CC1CC[C@]2(C(=O)O)CCC3(C)C(=CC(=O)C4[C@@]5(C)CCC(=O)C(C)(C)C5CC[C@]43C)[C@@H]2[C@H]1C (some centres undefined)	–	–	inactive
CN(C)P1(=S)NCC(C(C)(C)C)CO1 (centres undefined)	> 105	> 105 µM	–
Cc1ccc2c(c1)sc1nnc(S(C)(=O)=O)n12	> 200	11.2 µM	–
COC(=O)C(Cc1ccccc1)NC(=O)C(CCC(=O)OCc1ccccc1)NC(=O)OC(C)(C)C (centres undefined)	> 200	28.8 µM	–
c1ccc(COCC23CCN(Cc4ccccc4)C(CC(OCc4ccccc4)C2)S3)cc1 (centres undefined)	> 200	45.7 µM	–
Cc1ccc(S(=O)(=O)OC2CSSCC2OS(=O)(=O)c2ccc(C)cc2)cc1 (centres undefined)	–	–	inactive
C#CC(C)(C)OC(=O)C(=[N+]=[N-])C(C)=O	> 200	> 200 µM	–
Cc1cn(C2CC(O)C(COC(=O)CCCCCCCCCCCN=[N+]=[N-])O2)c(=O)[nH]c1=O (centres undefined)	10	21.4 µM	–
O=S1(=O)C2C=CCC1C(c1ccccc1)CC2 (centres undefined)	> 1000	> 1000 µM	–
CCCCSc1nc2c(=O)[nH][nH]c(=O)c2n1Cc1ccccc1	> 200	158 µM	–
Cc1ccc2c(c1)C1(C)c3cc(C)ccc3SP1S2 (centres undefined)	> 12.6	> 12.6 µM	–
COc1cc2c(cc1OC)C1=Cc3cc(OC)c(OC)cc3C(C)N1C=C2 (centres undefined)	> 355	29.5 µM	–
C[N+](C)(C)c1ccc2c(c1)N(S(C)(=O)=O)CC2CCl (centres undefined)	–	–	inactive
O=C(c1ccc(Cl)cc1)N(C(=S)N1CCN(c2ccccn2)CC1)c1ccccc1	> 30.9	> 30.9 µM	–
C=CC[C@@H]1C(=O)[C@@]2(O[Si](C(C)C)(C(C)C)C(C)C)CC[C@@H]1C[C@H]2NC(=O)OCC(Cl)(Cl)Cl	> 200	> 200 µM	–
[Co].[O-]c1cccnc1C=Nc1ccccc1.[OH3+]	> 240	35.5 µM	–
CC(C(=O)c1ccc(Cl)cc1)/C(=N/NC(=O)NN)C(=O)Nc1cccc(C(F)(F)F)c1 (centres undefined)	> 79.4	> 79.4 µM	–
